Measured values from publication PMC6010098, “Synthesis, antitumour and antioxidant activities of novel α,β-unsaturated ketones and related heterocyclic analogues: EGFR inhibition and molecular modelling study” (Journal of Enzyme Inhibition and Medicinal Chemistry, 2018).
Each block holds one compound with its values, some of them ahead of it.

How the values were obtained:
[1] = test system: HepG2, MCF-7, HeLa, and PC-3 cancer cell lines; assay: MTT antitumour assay, range over the four cell lines; format: cell-based, human; settings: Homo sapiens, range over HepG2, MCF-7, HeLa, PC-3 (and over the compounds named), read-out: IC50 range against the tested cell lines
Protocol: (§1) The evaluation of the antitumour activity was performed using tetrazolium salt MTT (3-(4,5-dimethyl-2-thiazolyl)-2,5-diphenyl-2H-tetrazolium bromide) assay as reported[62]^,[63].
(§2) The designed compounds were evaluated for their in vitro antitumour effects via the standard 3-(4,5-dimethylthiazol-2-yl)-2,5-diphenyltetrazolium bromide (MTT) method against a panel of four human tumour cell lines; namely, hepatocellular carcinoma cell line (HepG2), breast cancer cell line (MCF-7), human cervical cancer cell line (HeLa), and prostate cancer cell line (PC-3)[62]^,[63]^,[72]. The antitumour activities of the designed compounds 4–12, along with that of the reference drugs 5-FU and afatinib are shown in Table 1.

[2] = ABTS radical cation scavenging (antioxidant) assay; settings: 20 µl of 1 mg/ml test sample (L-ascorbic acid 20 µl, 2 mM)
Protocol: The absorbance (Acontrol) of a green-blue solution (ABTS^+ radical solution) resulted from a mixture of ABTS and manganese dioxide (MnO2) and was recorded at λmax 734 nm, according to the reported procedure[64]^,[65]. The absorbance (Atest) was measured upon the addition of 20 µl of 1 mg/ml solution of the test sample in spectroscopic grade methanol/phosphate buffer (1:1 v/v) to the ABTS solution. The decrease in absorbance is expressed as % inhibition, which can be calculated from the following equation: % inhibition = Acontrol-Atest/Acontrol×100.
L-Ascorbic acid 20 µl (2 mM) solution was used as standard antioxidant (positive control). A blank sample was run using only methanol/phosphate buffer (1:1), while the negative control was run with ABTS and the methanol/phosphate buffer.
The assay is based on measuring the ability of the tested compounds to scavenge the long-life radical cation of ABTS[22]^,[43]^,[64]^,[65].

[3] = test system: HeLa cells; assay: MTT antitumour assay, HeLa; format: cell-based; settings: human cervical epithelioid carcinoma cell line, mean ± SD, n = 3
Protocol: as §1
as §2, with “(PC-3)[62]^,[63]^,[72].” for “(PC-3)[62]^,[63]^,[72]. The antitumour activities of the designed compounds 4–12, along with that of the reference drugs 5-FU and afatinib are shown in Table 1.”

[4] = test system: HepG2 cells; assay: MTT antitumour assay, HepG2; format: cell-based; settings: human hepato-cellular carcinoma cell line, mean ± SD, n = 3
Protocol: as §1, §2

[5] = test system: MCF-7 cells; assay: MTT antitumour assay, MCF-7; format: cell-based; settings: MCF7, human breast adenocarcinoma cell line, mean ± SD, n = 3
Protocol: as §1, §2

[6] = test system: PC-3 cells; assay: MTT antitumour assay, PC-3; format: cell-based; settings: PC-3; MTT; human prostate cancer cell line; mean ± SD, n = 3
Protocol: as §1, §2

[7] = target: EGFR kinase (Homo sapiens, UniProt P00533); assay: ELISA-based EGFR kinase inhibition assay; settings: for inhibition at 0.15 µM: read-out: % Inhibition EGFR, 0.15 μM; for inhibition at 0.31 µM: read-out: % Inhibition EGFR, 0.31 μM; for inhibition at 0.625 µM: read-out: % Inhibition EGFR, 0.625 μM; for inhibition at 1.25 µM: read-out: % Inhibition EGFR, 1.25 μM; for inhibition at 2.5 µM: read-out: % Inhibition EGFR, 2.5 μM; for inhibition at 5 µM: read-out: % Inhibition EGFR, 5.0 μM; for inhibition at 10 µM: read-out: % Inhibition EGFR, 10.0 μM; for Conc. (Average), ELISA read-out: duplicate wells, standards in ng/ml, cont 134.9
Sequence of EGFR kinase (P00533 25-1210): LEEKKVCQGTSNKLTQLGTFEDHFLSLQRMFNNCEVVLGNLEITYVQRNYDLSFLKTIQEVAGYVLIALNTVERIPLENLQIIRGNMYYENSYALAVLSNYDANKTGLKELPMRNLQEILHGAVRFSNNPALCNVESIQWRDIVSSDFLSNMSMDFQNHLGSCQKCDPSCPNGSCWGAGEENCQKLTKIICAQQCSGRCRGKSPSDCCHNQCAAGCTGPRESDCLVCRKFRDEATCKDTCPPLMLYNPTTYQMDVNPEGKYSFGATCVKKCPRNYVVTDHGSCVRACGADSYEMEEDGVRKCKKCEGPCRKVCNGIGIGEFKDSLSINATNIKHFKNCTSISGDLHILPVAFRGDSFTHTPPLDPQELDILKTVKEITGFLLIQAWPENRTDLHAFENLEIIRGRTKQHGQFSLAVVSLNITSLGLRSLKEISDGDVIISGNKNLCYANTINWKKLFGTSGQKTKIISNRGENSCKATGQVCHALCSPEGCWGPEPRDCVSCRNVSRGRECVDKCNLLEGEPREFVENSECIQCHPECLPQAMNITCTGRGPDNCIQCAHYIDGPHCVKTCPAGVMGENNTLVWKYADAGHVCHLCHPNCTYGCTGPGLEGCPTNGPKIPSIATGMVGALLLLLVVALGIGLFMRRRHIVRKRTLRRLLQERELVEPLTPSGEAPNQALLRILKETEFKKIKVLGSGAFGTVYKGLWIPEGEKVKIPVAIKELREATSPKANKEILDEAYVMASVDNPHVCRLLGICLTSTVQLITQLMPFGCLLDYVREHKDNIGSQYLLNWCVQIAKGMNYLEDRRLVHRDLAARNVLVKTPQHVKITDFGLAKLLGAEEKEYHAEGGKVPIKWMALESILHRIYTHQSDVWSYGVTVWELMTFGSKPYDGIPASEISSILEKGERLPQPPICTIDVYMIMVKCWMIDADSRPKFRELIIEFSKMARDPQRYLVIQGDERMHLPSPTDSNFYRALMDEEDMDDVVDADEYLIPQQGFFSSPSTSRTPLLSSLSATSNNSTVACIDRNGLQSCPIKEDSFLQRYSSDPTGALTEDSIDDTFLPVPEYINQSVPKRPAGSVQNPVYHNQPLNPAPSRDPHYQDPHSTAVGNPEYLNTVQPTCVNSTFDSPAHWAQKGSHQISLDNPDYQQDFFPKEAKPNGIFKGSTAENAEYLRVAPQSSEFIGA

SMILES: CC(=O)C=Cc1ccc(OC2CCCC2)cc1 [4a, 4-(4-(Cyclopentyloxy)phenyl)but-3-en-2-one]
IC50 [1]: 21.8 to 40.9 µM
%Inhibition of the ABTS radical cation [2]: 52.0%
IC50 [3]: 25.7 ± 1.97 µM
IC50 [4]: 27.3 ± 1.96 µM
IC50 [5]: 40.9 ± 2.79 µM
IC50 [6]: 21.8 ± 1.68 µM

SMILES: Cc1ccc(C(=O)C=Cc2ccc(OC3CCCC3)cc2)cc1 [4b, 3-(4-(Cyclopentyloxy)phenyl)-1-(4-methylphenyl)prop-2-en-1-one]
%Inhibition of the ABTS radical cation [2]: 52.6%
IC50 [3]: 18.8 ± 1.57 µM
IC50 [4]: 20 ± 1.11 µM
IC50 [5]: 36.4 ± 2.6 µM
IC50 [6]: 17.1 ± 1.58 µM

SMILES: O=c1[nH]cc(F)c(=O)[nH]1 [5-FU, 5-fluorouracil, reference compound]
IC50 [1]: 4.8 to 8.3 µM
IC50 [3]: 4.8 ± 0.21 µM
IC50 [4]: 7.9 ± 0.17 µM
IC50 [5]: 5.4 ± 0.2 µM
IC50 [6]: 8.3 ± 0.35 µM

SMILES: CCN1CCC(=O)C(=Cc2ccc(OC3CCCC3)cc2)C1 [6b, 3-(4-(Cyclopentyloxy)benzylidene)-1-ethylpiperidin-4-one]
IC50 [1]: 5.5 to 18.1 µM
%Inhibition of the ABTS radical cation [2]: 55.1%
IC50 [3]: 6.7 ± 0.67 µM
IC50 [7]: 0.56 µM
% Inhibition EGFR ([7]; 0.15 μM): 26.52%
% Inhibition EGFR ([7]; 0.31 μM): 48.95%
% Inhibition EGFR ([7]; 0.625 μM): 55.33%
% Inhibition EGFR ([7]; 1.25 μM): 61.23%
% Inhibition EGFR ([7]; 2.5 μM): 64.44%
% Inhibition EGFR ([7]; 5.0 μM): 76.71%
% Inhibition EGFR ([7]; 10.0 μM): 83.66%
inhibition at 0.15 µM [7]: 26.5%
inhibition at 0.31 µM [7]: 49%
inhibition at 0.625 µM [7]: 55.3%
inhibition at 1.25 µM [7]: 61.2%
inhibition at 2.5 µM [7]: 64.4%
inhibition at 5 µM [7]: 76.7%
inhibition at 10 µM [7]: 83.7%
Conc. (Average), ELISA read-out ([7]; sample at 0.15uM): 99.12
Conc. (Average), ELISA read-out ([7]; sample at 0.31uM): 68.86
Conc. (Average), ELISA read-out ([7]; sample at 0.62uM): 60.25
Conc. (Average), ELISA read-out ([7]; sample at 1.25uM): 52.29
Conc. (Average), ELISA read-out ([7]; sample at 2.5uM): 47.96
Conc. (Average), ELISA read-out ([7]; sample at 5uM): 31.41
Conc. (Average), ELISA read-out ([7]; sample at 10uM): 22.04
IC50 [4]: 13 ± 0.87 µM
IC50 [5]: 13.7 ± 1.35 µM
IC50 [6]: 9.1 ± 0.88 µM

Continued, in another order:

IC50 [3]: 37.5 ± 2.81 µM
IC50 [4]: 71.3 ± 4.53 µM
IC50 [5]: 64.7 ± 4.27 µM
IC50 [6]: 26.9 ± 1.89 µM
SMILES: O=C1CCCCCC1=Cc1ccc(OC2CCCC2)cc1 [5c, 2-(4-(Cyclopentyloxy)benzylidene)cycloheptanone]
%Inhibition of the ABTS radical cation [2]: 51.0%

IC50 [3]: 77.8 ± 4.41 µM
IC50 [4]: > 100 µM
IC50 [5]: > 100 µM
IC50 [6]: 94.1 ± 5.82 µM
SMILES: O=C1CCCC1=Cc1ccc(OC2CCCC2)cc1 [5a, 2-(4-(Cyclopentyloxy)benzylidene)cyclopentanone]

IC50 [1]: 5.5 to 18.1 µM
IC50 [3]: 9.4 ± 0.98 µM
IC50 [7]: 4.66 µM
% Inhibition EGFR ([7]; 0.15 μM): 6.67%
% Inhibition EGFR ([7]; 0.31 μM): 18.16%
% Inhibition EGFR ([7]; 0.625 μM): 26.84%
% Inhibition EGFR ([7]; 1.25 μM): 34.55%
% Inhibition EGFR ([7]; 2.5 μM): 44.35%
% Inhibition EGFR ([7]; 5.0 μM): 50.34%
% Inhibition EGFR ([7]; 10.0 μM): 57.65%
inhibition at 0.15 µM [7]: 6.67%
inhibition at 0.31 µM [7]: 18.2%
inhibition at 0.625 µM [7]: 26.8%
inhibition at 1.25 µM [7]: 34.6%
inhibition at 2.5 µM [7]: 44.4%
inhibition at 5 µM [7]: 50.3%
inhibition at 10 µM [7]: 57.7%
Conc. (Average), ELISA read-out ([7]; sample at 0.15uM): 125.9
Conc. (Average), ELISA read-out ([7]; sample at 0.31uM): 110.4
Conc. (Average), ELISA read-out ([7]; sample at 0.62uM): 98.68
Conc. (Average), ELISA read-out ([7]; sample at 1.25uM): 88.29
Conc. (Average), ELISA read-out ([7]; sample at 2.5uM): 75.07
Conc. (Average), ELISA read-out ([7]; sample at 5uM): 66.98
Conc. (Average), ELISA read-out ([7]; sample at 10uM): 57.13
IC50 [4]: 15.9 ± 1.02 µM
IC50 [5]: 18.1 ± 1.58 µM
IC50 [6]: 10.5 ± 0.97 µM
SMILES: CN1CCC(=O)C(=Cc2ccc(OC3CCCC3)cc2)C1 [6a, 3-(4-(Cyclopentyloxy)benzylidene)-1-methylpiperidin-4-one]
%Inhibition of the ABTS radical cation [2]: 54.3%
